US20250388564A1, “METHODS OF MANUFACTURING PYRIDAZINONE COMPOUNDS” (Edgewise Therapeutics, Inc., priority 2022, published 2025)
≈ marks a conversion by molar mass, not a printed value.

Assay: Solubility of Compound IX in solvents (Table 1)
Type: physicochemical
Conditions: for solubility: organic solvent or mixture

Question: Which results are given for `O=c1ccc(-c2cnc(OCC(F)(F)F)nc2)n[nH]1` [Compound IX, 6-[2-(2,2,2-trifluoroethoxy)pyrimidin-5-yl]-2,3-dihydropyridazin-3-one]?
Answer: solubility (1,4-dioxane, solvent 1,4-dioxane (entry 8)): 2900 µg/mL (≈ 10.7 mM); solubility (ACN, solvent ACN (entry 6)): 1500 µg/mL (≈ 5.51 mM); solubility (DCE, solvent DCE (entry 1)): 150 µg/mL (≈ 0.551 mM); solubility (DCM, solvent DCM (entry 17)): 300 µg/mL (≈ 1.1 mM); solubility (DMA, solvent DMA (entry 19)): 13000 µg/mL (≈ 47.8 mM); solubility (DME, solvent DME (entry 4)): 3260 µg/mL (≈ 12 mM); solubility (DME, solvent DME (entry 21)): 10000 µg/mL (≈ 36.7 mM); solubility (DMF, solvent DMF (entry 18)): 21000 µg/mL (≈ 77.2 mM); solubility (DMSO, solvent DMSO (entry 10)): 45000 µg/mL (≈ 165 mM); solubility (EA, solvent EA (entry 16)): 700 µg/mL (≈ 2.57 mM); solubility (EtOH, solvent EtOH (entry 12)): 1000 µg/mL (≈ 3.67 mM); solubility (MTBE, solvent MTBE (entry 15)): 100 µg/mL (≈ 0.367 mM); solubility (MeOH, solvent MeOH (entry 11)): 2500 µg/mL (≈ 9.18 mM); solubility (NMP, solvent NMP (entry 20)): 44000 µg/mL (≈ 162 mM); solubility (THF, solvent THF (entry 5)): 2730 µg/mL (≈ 10 mM); solubility (acetone, solvent Acetone (entry 2)): 1590 µg/mL (≈ 5.84 mM); solubility (i-PrOH, solvent i-PrOH (entry 13)): 500 µg/mL (≈ 1.84 mM); solubility (in words) (overall statement on Table 1): limited solubility; solubility (t-BuOH, solvent t-BuOH (entry 14)): 100 µg/mL (≈ 0.367 mM); solubility (thietane 1,1-dioxide, solvent thietane 1,1-dioxide (entry 3)): 6350 µg/mL (≈ 23.3 mM)
